Data published in ChEMBL document CHEMBL5331054, “Antibacterial quaternary ammonium agents: Chemical diversity and biological mechanism” (Eur J Med Chem, 2022).
Blank lines part the entries; values can stand above or below the compound they belong to.

Legend:
Escherichia coli [1] = assay: Antibacterial activity against Escherichia coli ATCC 11229 assessed as reduction in bacterial cell growth incubated for 24 hrs by microtiter plate reader assay; format: functional
Staphylococcus aureus [2] = assay: Antibacterial activity against methicillin resistant Staphylococcus aureus assessed as reduction in bacterial cell growth incubated for 18 to 24 hrs by microbroth dilution assay; format: functional; details: time 18-24 hrs
Staphylococcus aureus [3] = assay: Antibacterial activity against Staphylococcus aureus ATCC 29213 assessed as inhibition of bacterial growth incubated for 16 hrs by CLSI based broth microdilution method; format: functional
Enterococcus faecalis [4] = assay: Antibacterial activity against Enterococcus faecalis ATCC 29212 assessed as inhibition of bacterial growth incubated for 16 hrs by CLSI based broth microdilution method; format: functional
Enterococcus faecalis [5] = assay: Antibacterial activity against vancomycin-resistant Enterococcus faecalis assessed as inhibition of bacterial growth incubated for 16 hrs by CLSI based broth microdilution method; format: functional
Pseudomonas aeruginosa [6] = assay: Antibacterial activity against Pseudomonas aeruginosa ATCC 27853 assessed as inhibition of bacterial growth incubated for 16 hrs by CLSI based broth microdilution method; format: functional
Staphylococcus aureus [7] = assay: Antibacterial activity against Staphylococcus aureus; format: functional
Enterococcus faecalis [8] = assay: Antibacterial activity against Enterococcus faecalis ATCC 29212 assessed as inhibition of bacterial growth incubated for 16 to 18 hrs by broth microdilution method; format: functional; details: time 16-18 hrs
Escherichia coli [9] = assay: Antibacterial activity against Escherichia coli ATCC 25922 assessed as inhibition of bacterial growth incubated for 16 to 18 hrs by broth microdilution method; format: functional; details: time 16-18 hrs
Pseudomonas aeruginosa [10] = assay: Antibacterial activity against Pseudomonas aeruginosa ATCC 27853 assessed as inhibition of bacterial growth incubated for 16 to 18 hrs by broth microdilution method; format: functional; details: time 16-18 hrs
Staphylococcus aureus [11] = assay: Antibacterial activity against methicillin-resistant Staphylococcus aureus assessed as bacterial growth inhibition measured after 16 to 18 hrs by broth microdilution method; format: functional; details: time 16-18 hrs
Staphylococcus aureus [12] = assay: Antibacterial activity against methicillin-resistant Staphylococcus aureus assessed as bacterial growth inhibition; format: functional
Escherichia coli [13] = assay: Antibacterial activity against Escherichia coli assessed as reduction in bacterial cell growth; format: functional
Klebsiella pneumoniae = assay: Antibacterial activity against Klebsiella pneumoniae ATCC 700603 assessed as inhibition of bacterial cell growth
Staphylococcus aureus [14] = assay: Antibacterial activity against methicillin-sensitive Staphylococcus aureus assessed as reduction in microbial growth; format: functional
Pseudomonas aeruginosa [15] = assay: Antibacterial activity against Pseudomonas aeruginosa assessed as reduction in bacterial cell growth; format: functional
Bacillus subtilis = assay: Antibacterial activity against Bacillus subtilis ATCC 6633 assessed as reduction in bacterial cell growth incubated for 24 hrs by microtiter plate reader assay; format: functional
Salmonella enterica = assay: Antibacterial activity against Salmonella enterica ATCC 14028 assessed as reduction in bacterial cell growth incubated for 24 hrs by microtiter plate reader assay; format: functional
Staphylococcus aureus [16] = assay: Antibacterial activity against Staphylococcus aureus ATCC 700699 assessed as reduction in bacterial cell growth incubated for 24 hrs by microtiter plate reader assay; format: functional
Staphylococcus aureus [17] = assay: Antibacterial activity against methicillin-resistant Staphylococcus aureus […] assessed as reduction in bacterial cell growth; format: functional
Pseudomonas aeruginosa [18] = assay: Antibacterial activity against Pseudomonas aeruginosa ATCC 10145 by broth microdilution method; format: functional
Staphylococcus aureus [19] = assay: Antibacterial activity against methicillin-resistant Staphylococcus aureus assessed as bacterial cell growth inhibition incubated for 18 hrs by microbroth dilution method; format: functional
Staphylococcus aureus [20] = assay: Antibacterial activity against Staphylococcus aureus assessed as bacterial growth inhibition incubated for 72 hrs by microdilution assay; format: functional, organism-based; details: Staphylococcus aureus; time 72 hrs
Staphylococcus aureus [21] = assay: Antimicrobial activity against community acquired methicillin-resistant Staphylococcus aureus assessed as reduction in bacterial cell growth; format: functional
Enterococcus faecalis [22] = assay: Antimicrobial activity against Enterococcus faecalis; format: functional
Escherichia coli [23] = assay: Antimicrobial activity against Escherichia coli at 50 uM; format: functional
Enterococcus faecalis [24] = assay: Antibacterial activity against Enterococcus faecalis assessed as bacterial growth inhibition incubated for 72 hrs by microdilution method; format: functional
Escherichia coli [25] = assay: Antibacterial activity against Escherichia coli assessed as bacterial growth inhibition incubated for 72 hrs by microdilution method; format: functional; details: Escherichia coli, 72 h, read-out: MIC
Pseudomonas aeruginosa [26] = assay: Antibacterial activity against Pseudomonas aeruginosa assessed as bacterial growth inhibition incubated for 72 hrs by microdilution method; format: functional; details: Pseudomonas aeruginosa, 72 h, read-out: MIC
Staphylococcus aureus [27] = assay: Antibiofilm activity against Staphylococcus aureus ATCC 33591 assessed as reduction in biofilm activity; format: functional

Structure (SMILES): CC(C)(C)n1cc[n+](CCCCCCCCCCCC[n+]2ccn(C(C)(C)C)c2)c1.[Br-].[Br-]
MIC (Escherichia coli [1]): 0.5 µg/mL
MIC (Staphylococcus aureus [2]): 0.5 µg/mL
MIC (Staphylococcus aureus [3]): 0.25 µg/mL
MIC (Enterococcus faecalis [4]): 0.5 µg/mL
MIC (Enterococcus faecalis [5]): 0.5 µg/mL
MIC (Pseudomonas aeruginosa [6]): 4 µg/mL

Structure (SMILES): CCCCCCCCCCCC[N+]12CC[N+](CCCCCCCCCCCC)(CC1)CC2
MIC (Staphylococcus aureus [7]): 0.25 µM
MIC (Enterococcus faecalis [8]): 4 µM
MIC (Escherichia coli [9]): 2 µM
MIC (Pseudomonas aeruginosa [10]): 8 µM
MIC (Staphylococcus aureus [11]): 0.5 µM

Structure (SMILES): CCCCCCCCC[n+]1cccc(Oc2ccc(-c3ccc(Oc4ccc[n+](CCCCCCCCC)c4)cc3)cc2)c1.[I-].[I-]
MIC (Staphylococcus aureus [12]): < 0.25 µg/mL
MIC (Escherichia coli [13]): 0.5 µg/mL
MIC (Klebsiella pneumoniae): 8 µg/mL

MIC (Staphylococcus aureus [14]): 1 µM
MIC (Pseudomonas aeruginosa [15]): 4 µM
Structure (SMILES): CCCCCCCCCCC[n+]1ccc(CCc2cc[n+](CCCCCCCCCCC)cc2)cc1

MIC (Escherichia coli [1]): 0.8 µg/mL
MIC (Bacillus subtilis): 0.8 µg/mL
MIC (Salmonella enterica): 1.6 µg/mL
Structure (SMILES): CCCCCCCCCCCCCCCCCCNC(=O)CC[C@@H](C)[C@H]1CC[C@H]2[C@@H]3[C@H](OC(=O)C[n+]4ccccc4)C[C@@H]4C[C@H](OC(=O)C[n+]5ccccc5)CC[C@]4(C)[C@H]3C[C@H](O)[C@]12C.[Cl-].[Cl-]

MIC (Staphylococcus aureus [16]): 0.5 µg/mL
Structure (SMILES): CCCCCCCCCCCCCCCCCC[N+](C)(C)Cc1cnc(C)c(O)c1C.Cl.[Cl-]

Structure (SMILES): CCCCCCCCCCCC[n+]1cccc(C[N+](C)(C)CCCCCCCCCCCC)c1
MIC (Staphylococcus aureus [17]): 1 µM

Structure (SMILES): CCCCCCCC[n+]1ccc(SCCCCCCSc2cc[n+](CCCCCCCC)cc2)cc1.[Br-].[Br-]
MIC (Pseudomonas aeruginosa [18]): 8 µg/mL
MIC (Staphylococcus aureus [19]): 8 µg/mL

Structure (SMILES): CCCCCCCCCCC[n+]1ccc(CCCc2cc[n+](CCCCCCCCCCC)cc2)cc1
MIC (Staphylococcus aureus [20]): 0.25 µM
MIC (Staphylococcus aureus [12]): 0.25 µM
MIC (Staphylococcus aureus [21]): 0.25 µM
MIC (Enterococcus faecalis [22]): 0.5 µM
MIC (Escherichia coli [23]): 0.5 µM

MIC (Staphylococcus aureus [20]): 1 µM
MIC (Enterococcus faecalis [24]): < 0.25 µM
MIC (Escherichia coli [25]): < 0.25 µM
MIC (Pseudomonas aeruginosa [26]): 4 µM
Structure (SMILES): CCCCCCCCCCCCC[N+](C)(C)CCCN(C)CCC[N+](C)(C)CCCCCCCCCCCC.[Br-].[Br-]
MBEC (Staphylococcus aureus [27]): 50 µM
